Patent US7569213B2, “Immunotherapeutic agent” (Stanford Rook Limited, priority 2004, dated 2009)
“Also recorded” adds a separate entry of the source.

Test system: allergen challenged allergic mice
Assay: Allergic pulmonary inflammation model (ovalbumin/alum sensitized mice, intratracheal ovalbumin challenge, BAL fluid analysis)
Assay type: in vivo, Balb/c female mice
Conditions: for total cellular infiltrate (cells recovered in the bronchoalveolar lavage fluid) / neutrophils and monocytes/macrophages at the site of inflammation (BAL fluid) / number of eosinophils recovered in the BAL fluid / IL-5 levels in the BAL fluid / IL-10 levels in the BAL fluid: ovalbumin/alum sensitized mice; for total cellular infiltrate (cells recovered in the bronchoalveolar lavage fluid): intratracheal ovalbumin challenge, compared to buffer-treated mice; for neutrophils and monocytes/macrophages at the site of inflammation (BAL fluid) / number of eosinophils recovered in the BAL fluid / IL-5 levels in the BAL fluid / IL-10 levels in the BAL fluid: ovalbumin challenge; for IL-5 levels in the BAL fluid / IL-10 levels in the BAL fluid: ELISA
From the text: This model is used below to evaluate the effect of the compounds of the invention and to carry out comparative tests.
The prevention protocol is designed to determine the ability of treatment to prevent the development of symptoms of allergic pulmonary inflammation in subsequently sensitized mice. The therapeutic protocol is designed to determine the ability of treatment to cure symptoms of allergic pulmonary inflammation in sensitized mice.
In the prevention protocol Balb/c female mice (7-8 weeks of age, 17-20 g in weight) are treated with saline or buffer—0.001% FFA albumin in saline (as positive control) or lipid fractions of mycobacteria (taken form the sample deposited at the National Collection of Type Cultures under deposit number NCTC 11659). Three weeks after treatment all mice are sensitized intraperitoneally with 10 μg ovalbumin (OVA) and Alum (a 100 μl preparation of Alum supplied by Serva-Alu-Gel-S suspension). Sensitization is repeated after twelve days. On day 19, mice are intratracheally challenged with OVA (0.5 μg in 50 μl saline). Intratracheal antigenic challenge is repeated two days later. Twenty-four or 48 hours after the last challenge, the experiment is terminated.
In the therapeutic protocol mice are sensitized with OVA and Alum on day 0 and 12. On day 21, mice are treated as appropriate. Mice are resensitized on days 42 and 54. On days 61 and 63, mice are challenged intratracheally with OVA and the experiment terminated 24 or 48 hours later.
In some experiments, a small number of mice from the positive control group are challenged intratracheally with saline alone to determine the background level of cells infiltrating the lungs of sensitized mice in the absence of an allergic episode (negative control).
A number of end points are routinely assessed. Mice are bled by cardiac puncture and blood collected for serum analysis. The lungs are lavaged three times with 0.3 ml of sterile RPMI containing Penicillin/Streptomycin. The lavage fluid is collected and recovered cells are counted. Fifty or 100 μl of lavage fluid is used for a cytospin, which is stained (Wright-Giemsa stain), fixed in methanol and used for the morphological identification of specific cell populations of interest (eosinophils, neutrophils and monocytes/macrophages). The remaining fluid is spun down and the supernatant stored for cytokine measurement by ELISA. Spleens are pooled per treatment groups, a single cell suspension of splenocytes is obtained and placed in culture with OVA for specific antigenic stimulation and with anti-CD3 for polyclonal T cell stimulation. Supernatants are collected and stored for cytokine measurement by ELISA.

Row | Compound | total cellular infiltrate (cells recovered in the bronchoalveolar lavage fluid) | neutrophils and monocytes/macrophages at the site of inflammation (BAL fluid) | number of eosinophils recovered in the BAL fluid | IL-5 levels in the BAL fluid | IL-10 levels in the BAL fluid | total cellular infiltrate in the lungs (single dose as low as 1 μg (doses tested 5 μg, 1 μg, 0.1 μg))
1 | CCCCC/C=C/CCCCCCCCC(=O)O [C16:1 10-11 trans] | reduction in the cellular infiltrate |  |  |  |  | 
2 | CCCCC/C=C\CCCCCCCCC(=O)O [SRP312f, hexadecenoic acid (10Z)] |  | did not result in neutrophilia or in an increase of monocytes or macrophages | significant reduction | reduced | increased | 
3 | CCCCC/C=C\CCCCCCCCC(=O)OCC(COC(=O)CCCCCCCC/C=C\CCCCC)OC(=O)CCCCCCCC/C=C\CCCCC [SRP312t, tri-ester of 1,2,3-propanetriol and hexadecenoic acid (10Z)] | reduced the total cellular infiltrate; also recorded: greater reduction | did not result in neutrophilia or in an increase of monocytes or macrophages | significant reduction | reduced | increased | significantly reduce
4 | CCCCC=CCCCCCCCCCC(=O)OCC(COC(=O)CCCCCCCCCC=CCCCC)OC(=O)CCCCCCCCCC=CCCCC (stereo not drawn) [C16:1 11-12] | failed to reduce |  |  |  |  | 
